This test concerns the target SARS-CoV-2 main protease (M^pro) (Severe acute respiratory syndrome coronavirus 2, UniProt P0DTD1).
For RVVKLQ/ANELMP [nsp8/9 N1′A], the “Fold change = (kcat/KM) nsp8/9 analog /(kcat/KM) nsp8/9” value was 2.9; the Km – broadly, the concentration of substrate that gives half-maximal velocity – amounted to 22 ± 3 µM; the kcat is on record as 0.022 ± 0.001 S^−1; the “kcat/KM (catalytic efficiency)” value is recorded as 1.0 ± 0.1 × 10^3 M^−1 s^−1.
The like results for RVVKLQ/NAELMP [nsp8/9 N2′A] were, in that order, 2.1, 46 ± 5 µM, 0.034 ± 0.002 S^−1 and 7.5 ±0.8 × 10^2 M^−1 s^−1.
For the substance RVVKLQ/NDELMP [nsp8/9 N2′D], the “Fold change = (kcat/KM) nsp8/9 analog /(kcat/KM) nsp8/9” value turned out to be 0.4, the Km was determined as 19 ± 1 µM, the kcat is given as 0.0029 ± 0.0001 S^−1 and the “kcat/KM (catalytic efficiency)” value is given as 1.6 ± 1.2 × 10^2 M^−1 s^−1.
For the substance RVVKLQ/NNELMP [nsp8/9], the “Fold change = (kcat/KM) nsp8/9 analog /(kcat/KM) nsp8/9” value is listed as 1.0, the Km was 36 ± 6 µM, the kcat is 0.013 ± 0.001 S^−1 and the “kcat/KM (catalytic efficiency)” value is 3.6 ± 0.7 × 10^2 M^−1 s^−1.
In the case of TSAVLQ/SGFRKM [nsp4/5], the Km turned out to be 41 ± 9 µM; the “fold difference in kcat/KM, nsp4/5 versus nsp8/9” value turned out to be 36 fold; the kcat amounted to 0.52 ± 0.07 S^−1; the “kcat/KM (catalytic efficiency)” value is on record as 1.3 ± 0.3 × 10^4 M^−1 s^−1.
